Experimental findings from patent US20030176314A1, “Compounds for the treatment of pain” (priority 2001, published 2003) are described below.

For one assay, the target named is T1, human Y5 receptor (Homo sapiens, UniProt Q15761).
T1 construct: host or cells: L cells, line L-hY5-7
T1 sequence (Q15761 1-445): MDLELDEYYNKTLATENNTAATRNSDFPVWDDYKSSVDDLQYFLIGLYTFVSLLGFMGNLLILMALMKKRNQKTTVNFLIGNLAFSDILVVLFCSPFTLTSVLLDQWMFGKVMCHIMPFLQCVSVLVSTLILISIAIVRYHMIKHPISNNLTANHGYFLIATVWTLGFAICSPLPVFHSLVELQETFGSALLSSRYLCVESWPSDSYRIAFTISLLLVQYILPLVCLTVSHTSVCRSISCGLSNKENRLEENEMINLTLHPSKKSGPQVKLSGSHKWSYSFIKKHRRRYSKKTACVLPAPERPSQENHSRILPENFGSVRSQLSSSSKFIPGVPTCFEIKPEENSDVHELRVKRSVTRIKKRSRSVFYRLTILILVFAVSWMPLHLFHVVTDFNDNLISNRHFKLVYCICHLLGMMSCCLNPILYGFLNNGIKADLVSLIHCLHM
The assay is described as follows: Binding at human neuropeptide Y Y5 receptor. The settings on record: Table 8; read-out: hY5 Ki. From the text:
(§1) Neuropeptide receptors: Stably transfected cell lines which may be used for binding experiments include, for the Y1 receptor, 293-hY1-5 (deposited Jun. 4, 1996, under ATCC Accession No. CRL-12121); for the Y2 receptor, 293-hY2-10 (deposited Jan. 27, 1994, under ATCC Accession No. CRL-11837); for the Y4 receptor, L-hY4-3 (deposited Jan. 11, 1995, under ATCC Accession No. CRL 11779); and for the Y5 receptor, L-hY5-7 (deposited Nov. 15, 1995, under ATCC Accession No. CRL 11995).
(§2) Binding assays using the NPY receptors may be carried out according to the procedures described in U.S. Pat. No. 5,602,024, the disclosure of which is hereby incorporated by reference in its entirety into this application.
(§3) The binding affinity (Ki) of these compounds were tested according to the protocols described herein at the following receptors; human α1A, α1B, α1D, α2A, α2B, and α2C adrenergic receptors; human Y1, Y2, Y4, and Y5 receptors; and N-Methyl-D-aspartic acid (NMDA) receptor channels. The binding interactions of these compounds were additionally tested at the norepinephrine (NE) transporter (NE uptake) and serotonin (5-hydroxytryptamine (5HT)) transporter (5HT uptake) according to protocols described herein

The target of assay [1] is T2, serotonin (5HT) transporter (Rattus norvegicus, UniProt P31652).
T2 construct: evaluated at native, tissue-derived transporters; from tissue
Nature of the assay: Binding at native serotonin transporter (5HT uptake). Particulars: Table 8. In a few lines:
(§4)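 Binding (Ki) at native, tissue-derived rat serotonin and norepinephrine transporters, measured by the Owens (1997) protocol.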

Another assay addresses T3, human Y1 receptor (Homo sapiens, UniProt P25929).
T3 construct: host or cells: 293 cells, line 293-hY1-5
T3 sequence (P25929 1-384): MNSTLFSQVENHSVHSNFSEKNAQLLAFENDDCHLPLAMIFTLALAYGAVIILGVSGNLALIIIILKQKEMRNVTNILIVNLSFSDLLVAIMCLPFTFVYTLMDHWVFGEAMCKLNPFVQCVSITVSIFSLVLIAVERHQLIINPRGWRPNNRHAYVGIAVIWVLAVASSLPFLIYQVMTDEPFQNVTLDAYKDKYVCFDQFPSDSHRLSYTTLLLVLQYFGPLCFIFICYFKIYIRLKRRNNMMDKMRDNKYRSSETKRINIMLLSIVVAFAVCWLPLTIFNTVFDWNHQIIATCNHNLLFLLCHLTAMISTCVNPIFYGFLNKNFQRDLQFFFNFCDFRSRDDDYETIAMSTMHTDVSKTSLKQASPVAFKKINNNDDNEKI
The assay is described as follows: Binding at human neuropeptide Y Y1 receptor. The settings on record: Table 8; read-out: hY1 Ki.
Description: as §1, §2, §3

In assay [2] the target is T4, norepinephrine (NE) transporter (Rattus norvegicus, UniProt Q63380).
T4 construct: evaluated at native, tissue-derived transporters; from tissue
The assay is described as follows: Binding at native norepinephrine transporter (NE uptake). The settings on record: Table 8. In a few lines: as §4

For the next assay, the target named is T5, human Y4 receptor (Homo sapiens, UniProt P50391).
T5 construct: host or cells: L cells, line L-hY4-3
Nature of the assay: Binding at human neuropeptide Y Y4 receptor. Particulars: Table 8; read-out: hY4 Ki.
Description: as §1, §2, §3

For the next assay, the target named is T6, human Y2 receptor (Homo sapiens, UniProt P49146).
T6 construct: host or cells: 293 cells, line 293-hY2-10
T6 sequence (P49146 1-381): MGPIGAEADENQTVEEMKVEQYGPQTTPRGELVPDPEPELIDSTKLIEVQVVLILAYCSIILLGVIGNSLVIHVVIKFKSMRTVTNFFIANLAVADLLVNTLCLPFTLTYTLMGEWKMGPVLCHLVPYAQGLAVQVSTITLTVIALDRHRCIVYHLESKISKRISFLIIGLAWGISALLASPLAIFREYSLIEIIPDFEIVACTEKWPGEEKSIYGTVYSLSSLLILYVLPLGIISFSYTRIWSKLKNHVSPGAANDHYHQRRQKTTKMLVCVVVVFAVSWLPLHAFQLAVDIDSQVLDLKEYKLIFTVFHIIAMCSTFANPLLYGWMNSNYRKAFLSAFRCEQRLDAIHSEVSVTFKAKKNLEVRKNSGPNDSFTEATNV
The assay is described as follows: Binding at human neuropeptide Y Y2 receptor. The settings on record: Table 8; read-out: hY2 Ki.
Description: as §1, §2, §3

The target in the next assay is T7, rat NPFF2 receptor (Rattus norvegicus, UniProt Q9EQD2).
T7 construct: The full-length NPFF2 was amplified from rat spinal cord cDNA; expressed in transfected cells; host or cells: not given
The assay is described as follows: Functional assay (agonist potency, intrinsic activity) at cloned rat NPFF2 receptor. Type of assay: cell-based. Particulars: Table 7, intrinsic activity.

The structures appear in SMILES notation.

T5 sequence (P50391 whole entry): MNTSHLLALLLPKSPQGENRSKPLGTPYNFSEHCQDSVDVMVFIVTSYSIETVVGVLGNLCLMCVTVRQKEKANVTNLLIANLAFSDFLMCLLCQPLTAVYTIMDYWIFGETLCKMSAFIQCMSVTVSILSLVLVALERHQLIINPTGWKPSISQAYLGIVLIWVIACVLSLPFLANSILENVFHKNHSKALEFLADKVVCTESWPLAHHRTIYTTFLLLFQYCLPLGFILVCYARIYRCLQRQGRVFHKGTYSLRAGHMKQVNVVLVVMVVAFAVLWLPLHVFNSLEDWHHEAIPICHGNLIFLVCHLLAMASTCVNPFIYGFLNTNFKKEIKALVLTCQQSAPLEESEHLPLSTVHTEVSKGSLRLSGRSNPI
T4 sequence (Q63380 1-617): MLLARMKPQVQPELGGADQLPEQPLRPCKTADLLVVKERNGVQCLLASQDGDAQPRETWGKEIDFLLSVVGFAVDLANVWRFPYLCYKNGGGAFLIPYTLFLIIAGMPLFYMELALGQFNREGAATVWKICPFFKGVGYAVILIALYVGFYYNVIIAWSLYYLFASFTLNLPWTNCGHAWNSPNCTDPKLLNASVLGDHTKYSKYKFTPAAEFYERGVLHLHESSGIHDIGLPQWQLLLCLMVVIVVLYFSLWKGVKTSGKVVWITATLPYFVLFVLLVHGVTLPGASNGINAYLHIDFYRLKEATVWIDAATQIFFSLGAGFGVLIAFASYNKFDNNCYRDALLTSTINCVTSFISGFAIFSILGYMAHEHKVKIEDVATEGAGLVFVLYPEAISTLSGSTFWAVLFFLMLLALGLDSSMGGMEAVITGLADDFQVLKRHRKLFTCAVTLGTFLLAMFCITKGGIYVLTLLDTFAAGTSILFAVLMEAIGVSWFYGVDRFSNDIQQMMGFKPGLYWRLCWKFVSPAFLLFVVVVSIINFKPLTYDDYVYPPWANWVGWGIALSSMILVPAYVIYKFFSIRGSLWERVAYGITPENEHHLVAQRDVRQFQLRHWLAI
T7 sequence (Q9EQD2 whole entry): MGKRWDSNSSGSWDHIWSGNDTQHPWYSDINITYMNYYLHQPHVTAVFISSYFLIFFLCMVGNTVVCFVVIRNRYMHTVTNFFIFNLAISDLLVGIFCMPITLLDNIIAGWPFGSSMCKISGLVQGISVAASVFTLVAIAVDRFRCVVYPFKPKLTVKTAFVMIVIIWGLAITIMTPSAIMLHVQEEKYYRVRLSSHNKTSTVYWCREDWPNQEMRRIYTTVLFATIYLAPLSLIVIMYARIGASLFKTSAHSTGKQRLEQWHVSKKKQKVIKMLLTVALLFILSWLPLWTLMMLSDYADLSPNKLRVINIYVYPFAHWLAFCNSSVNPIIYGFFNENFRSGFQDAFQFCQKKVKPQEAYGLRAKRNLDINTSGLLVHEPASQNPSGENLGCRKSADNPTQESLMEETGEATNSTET
T2 sequence (P31652 whole entry): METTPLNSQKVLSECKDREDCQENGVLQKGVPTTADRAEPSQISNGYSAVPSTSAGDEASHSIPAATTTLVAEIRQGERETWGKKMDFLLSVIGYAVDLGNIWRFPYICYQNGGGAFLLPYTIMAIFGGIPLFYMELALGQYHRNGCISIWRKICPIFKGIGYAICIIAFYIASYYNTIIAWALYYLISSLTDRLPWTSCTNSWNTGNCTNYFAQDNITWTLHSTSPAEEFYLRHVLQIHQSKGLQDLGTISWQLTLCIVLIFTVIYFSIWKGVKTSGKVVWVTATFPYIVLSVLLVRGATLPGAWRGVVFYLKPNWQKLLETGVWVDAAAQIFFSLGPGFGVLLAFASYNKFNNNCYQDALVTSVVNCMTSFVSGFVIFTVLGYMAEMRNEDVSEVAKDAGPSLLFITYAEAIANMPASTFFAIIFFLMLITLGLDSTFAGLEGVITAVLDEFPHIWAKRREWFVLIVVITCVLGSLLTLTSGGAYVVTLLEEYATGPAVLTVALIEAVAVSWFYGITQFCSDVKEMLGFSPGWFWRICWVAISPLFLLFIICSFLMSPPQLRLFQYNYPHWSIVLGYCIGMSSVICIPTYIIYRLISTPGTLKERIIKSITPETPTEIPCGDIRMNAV

Usually Ki stands for the dissociation constant of the complex between target and ligand, obtained from inhibition or displacement. For the molecule `Cc1nc(NC(=N)N)nc2ccc3ccccc3c12` [Compound 1007A], the inhibition constant (Ki) at human Y5 receptor is 0.074 µM; in assay [1] it was 0.026 µM; on human Y1 receptor it was 5.24 µM; in assay [2], 1.94 µM; at human Y4 receptor, 2.61 µM; at human Y2 receptor, over 50 µM. Further, the “rNPFF2 IA” value at rat NPFF2 receptor came out at 66% NPFF.

For the molecule `Cc1cc(NC(=N)N)nc2ccc(Cl)cc12` [Compound 4005A, N-(6-chloro-4-methyl-2-quinolinyl)guanidine], the inhibition constant (Ki) at human Y5 receptor was 0.358 µM; in assay [1] it was 2.58 µM; at human Y1 receptor, 12.3 µM; in assay [2] it was 8.29 µM; on human Y4 receptor it was 5.05 µM; on human Y2 receptor it was over 50 µM. Further, the “rNPFF2 IA” value at rat NPFF2 receptor is reported as 61% NPFF.
